# System: 997537-175-T-J1-PDC complex spheroid viability
# Test: Anticancer human tumor 997537-175-T-J1-PDC patient-derived colon adenocarcinoma cell line growth inhibition [GQUAD]
# Conditions: for IC50: curve of first compound; for viability, T/C: stronger effect = lower value
# Method in brief: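 Viability of tumor cells grown as complex spheroids with endothelial and stromal cells, exposed to drug combinations. Top concentration at or near clinical Cmax (else 10 microM), diluted in half-log increments.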
# [1] = second compound 0.0316 µM, first compound 0.0316 µM
# [2] = second compound 0.0316 µM, first compound 0.1 µM
# [3] = second compound 0.0316 µM, first compound 0.316 µM
# [4] = second compound 0.0316 µM, first compound 1 µM
# [5] = second compound 0.0316 µM, first compound 3.16 µM
# [6] = second compound 0.0316 µM, first compound 10 µM
# [7] = second compound 0.1 µM, first compound 0.0316 µM
# [8] = second compound 0.1 µM, first compound 0.1 µM
# [9] = second compound 0.1 µM, first compound 0.316 µM
# [10] = second compound 0.1 µM, first compound 1 µM
# [11] = second compound 0.1 µM, first compound 3.16 µM
# [12] = second compound 0.1 µM, first compound 10 µM
# [13] = second compound 0.316 µM, first compound 0.0316 µM
# [14] = second compound 0.316 µM, first compound 0.1 µM
# [15] = second compound 0.316 µM, first compound 0.316 µM
# [16] = second compound 0.316 µM, first compound 1 µM
# [17] = second compound 0.316 µM, first compound 3.16 µM
# [18] = second compound 0.316 µM, first compound 10 µM
# [19] = second compound 1 µM, first compound 0.0316 µM
# [20] = second compound 1 µM, first compound 0.1 µM
# [21] = second compound 1 µM, first compound 0.316 µM
# [22] = second compound 1 µM, first compound 1 µM
# [23] = second compound 1 µM, first compound 3.16 µM
# [24] = second compound 1 µM, first compound 10 µM
# [25] = second compound 3.16 µM, first compound 0.0316 µM
# [26] = second compound 3.16 µM, first compound 0.1 µM
# [27] = second compound 3.16 µM, first compound 0.316 µM
# [28] = second compound 3.16 µM, first compound 1 µM
# [29] = second compound 3.16 µM, first compound 3.16 µM
# [30] = second compound 3.16 µM, first compound 10 µM
# [31] = second compound 10 µM, first compound 0.0316 µM
# [32] = second compound 10 µM, first compound 0.1 µM
# [33] = second compound 10 µM, first compound 0.316 µM
# [34] = second compound 10 µM, first compound 1 µM
# [35] = second compound 10 µM, first compound 3.16 µM
# [36] = second compound 10 µM, first compound 10 µM
# 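Also: spheroids exposed to the agents for 7 days.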
# 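For viability, T/C in this document: 100% = DMSO vehicle control viability.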
structure (smiles),measurement,setting,value
CC(C)(O)C1CCC(Nc2ccc3ncc(-c4cccc(C(F)(F)F)c4)n3n2)CC1 (stereo unspecified) + CN(C)c1ccc(Nc2c3ccc(NC(=O)CCN4CCCC4)cc3nc3cc(NC(=O)CCN4CCCC4)ccc23)cc1,IC50,second compound 0.0316 µM,2.03 µM
same,IC50,second compound 0.1 µM,1.82 µM
same,IC50,second compound 0.316 µM,1.85 µM
same,IC50,second compound 1 µM,2.23 µM
same,IC50,second compound 3.16 µM,1.45 µM
same,IC50,second compound 10 µM,2.02 µM
same,"viability, T/C",[1],99.5%
same,"viability, T/C",[2],108%
same,"viability, T/C",[3],88%
same,"viability, T/C",[4],65.8%
same,"viability, T/C",[5],41.1%
same,"viability, T/C",[6],26.1%
same,"viability, T/C",[7],83.8%
same,"viability, T/C",[8],89.8%
same,"viability, T/C",[9],78.2%
same,"viability, T/C",[10],58.9%
same,"viability, T/C",[11],38.2%
same,"viability, T/C",[12],45.8%
same,"viability, T/C",[13],85.2%
same,"viability, T/C",[14],78.5%
same,"viability, T/C",[15],78.2%
same,"viability, T/C",[16],75.3%
same,"viability, T/C",[17],27.9%
same,"viability, T/C",[18],20.4%
same,"viability, T/C",[19],61.4%
same,"viability, T/C",[20],91.5%
same,"viability, T/C",[21],79.2%
same,"viability, T/C",[22],81%
same,"viability, T/C",[23],30.4%
same,"viability, T/C",[24],44.9%
same,"viability, T/C",[25],64.5%
same,"viability, T/C",[26],85.5%
same,"viability, T/C",[27],79.4%
same,"viability, T/C",[28],54.5%
same,"viability, T/C",[29],44%
same,"viability, T/C",[30],36.7%
same,"viability, T/C",[31],87.8%
same,"viability, T/C",[32],96.4%
same,"viability, T/C",[33],95.9%
same,"viability, T/C",[34],70.5%
same,"viability, T/C",[35],37.2%
same,"viability, T/C",[36],22.6%
O=c1[nH]cc(F)c(=O)[nH]1 + Cc1[nH]c2ccc(F)cc2c1-c1nc2c3cccnc3c3ncccc3c2[nH]1,IC50,second compound 0.0316 µM,> 10 µM
same,IC50,second compound 0.1 µM,> 10 µM
same,IC50,second compound 0.316 µM,> 10 µM
same,IC50,second compound 1 µM,> 10 µM
same,IC50,second compound 3.16 µM,> 10 µM
same,IC50,second compound 10 µM,> 10 µM
same,"viability, T/C",[1],95.6%
same,"viability, T/C",[2],88.1%
same,"viability, T/C",[3],109%
same,"viability, T/C",[4],91.7%
same,"viability, T/C",[5],80.3%
same,"viability, T/C",[6],89.5%
same,"viability, T/C",[7],87.4%
same,"viability, T/C",[8],87.7%
same,"viability, T/C",[9],84.6%
same,"viability, T/C",[10],83.5%
same,"viability, T/C",[11],98.3%
same,"viability, T/C",[12],101%
same,"viability, T/C",[13],94.2%
same,"viability, T/C",[14],76.8%
same,"viability, T/C",[15],78.5%
same,"viability, T/C",[16],107%
same,"viability, T/C",[17],114%
same,"viability, T/C",[18],109%
same,"viability, T/C",[19],79.2%
same,"viability, T/C",[20],94%
same,"viability, T/C",[21],85.4%
same,"viability, T/C",[22],87.2%
same,"viability, T/C",[23],108%
same,"viability, T/C",[24],86.7%
same,"viability, T/C",[25],87.2%
same,"viability, T/C",[26],83%
same,"viability, T/C",[27],94.1%
same,"viability, T/C",[28],95.8%
same,"viability, T/C",[29],94%
same,"viability, T/C",[30],76.1%
same,"viability, T/C",[31],70.2%
same,"viability, T/C",[32],76.2%
same,"viability, T/C",[33],88.6%
same,"viability, T/C",[34],57%
same,"viability, T/C",[35],61.4%
same,"viability, T/C",[36],61.4%
C#Cc1c(F)ccc2cc(O)cc(-c3ncc4c(N5CC6CCC(C5)N6)nc(OCC56CCCN5CC(F)C6)nc4c3F)c12 (stereo unspecified) + Cc1cnc(CNC(=O)c2c(=O)c3ccc(N4CCCN(C)CC4)nc3n3c2sc2ccccc23)cn1,IC50,second compound 0.0316 µM,> 10 µM
same,IC50,second compound 0.1 µM,> 10 µM
same,IC50,second compound 0.316 µM,> 10 µM
same,IC50,second compound 1 µM,> 10 µM
same,IC50,second compound 3.16 µM,> 10 µM
same,IC50,second compound 10 µM,> 10 µM
same,"viability, T/C",[1],102%
same,"viability, T/C",[2],85.6%
same,"viability, T/C",[3],101%
same,"viability, T/C",[4],74.9%
same,"viability, T/C",[5],75.7%
same,"viability, T/C",[6],111%
same,"viability, T/C",[7],92.2%
same,"viability, T/C",[8],90.2%
same,"viability, T/C",[9],101%
same,"viability, T/C",[10],80.8%
same,"viability, T/C",[11],104%
same,"viability, T/C",[12],109%
same,"viability, T/C",[13],83.4%
same,"viability, T/C",[14],83.6%
same,"viability, T/C",[15],92.1%
same,"viability, T/C",[16],97.3%
same,"viability, T/C",[17],79.9%
same,"viability, T/C",[18],108%
same,"viability, T/C",[19],72.3%
same,"viability, T/C",[20],101%
same,"viability, T/C",[21],85%
same,"viability, T/C",[22],98%
same,"viability, T/C",[23],105%
same,"viability, T/C",[24],113%
same,"viability, T/C",[25],91.2%
same,"viability, T/C",[26],108%
same,"viability, T/C",[27],95.2%
same,"viability, T/C",[28],99.1%
same,"viability, T/C",[29],96.3%
same,"viability, T/C",[30],106%
same,"viability, T/C",[31],77%
same,"viability, T/C",[32],100%
same,"viability, T/C",[33],93.1%
same,"viability, T/C",[34],97.9%
same,"viability, T/C",[35],127%
same,"viability, T/C",[36],110%

# Source: PubChem BioAssay AID2060487 (Molecular Pharmacology Branch, DTP, NCI, 2025)
